In assay [1] the test system is STYK1 Y191 phosphorylation by BLK kinase. Nature of the assay: STYK1 tyrosine phosphorylation by BLK (IP-Western / in vitro kinase assay). Format: biochemical. Particulars: HEK293T cells, BLK overexpression; GST-STYK1 ICD and HA-BLK kinase reactions. As to the method: (§1) Whole-cell extracts were prepared with 1% sodium dodecyl sulfate lysis buffer with freshly added 1% proteinase inhibitor cocktail (Biomake, B14001) and 1 mM phenylmethylsulfonyl fluoride (PMSF, MCE, HY-B0496). Western blot was performed as described previously.[20] The following primary antibodies were used: anti-phospho-β-catenin (Ser33/37/Thr41) (9561, Cell Signaling Technology), anti-β-catenin (51067-2-AP, Proteintech), anti-β-TrCP (4394, Cell Signaling Technology), anti-Non-phospho (Active) β-catenin (Ser33/37/Thr41) (8814, Cell Signaling Technology), anti-STYK1 (862318, zenbio), anti-C-myc (10828-1-AP, Proteintech), anti-CyclinD1 (60186-1-Ig, Proteintech), anti-Axin2 (20540-1-AP, Proteintech), anti-mouse HA (M180-3, EMD Millipore), anti-Rabbit HA (51064-2-AP, Proteintech), anti-mouse […] (M185, MBL), anti-Rabbit […] […]
GST affinity-isolation assay was performed as described previously.[18] […] Surface plasmon resonance analysis (Biacore T200) quantified binding kinetics between GST-β-catenin/GSK3β and synthetic α-helical peptides, with dissociation constants calculated via BIA evaluation software.

The test system of assay [2] is PANC-1 xenograft. Nature of the assay: PANC-1 xenograft in nude mice. Format: in vivo, mouse.
Procedure: PANC-1 xenograft tumors were further established in nude mice via subcutaneous hindlimb injection (Fig. 8e). 25 mg/kg STYK1-driving peptides were intraperitoneally injected twice a week after the subcutaneous tumor formed.
(2) Mouse subcutaneous xenograft experiments were carried out as previously described.[25] Female BALB/c nude mice (4-week-old, 18–22 g) were sourced from Hunan SJA Laboratory Animal (Cat: hnslkjd006; Changsha, China) and housed under SPF conditions with routine health surveillance.
Assay [3] has as its system β-catenin/TCF4 transcriptional activity. Nature of the assay: 7TGC reporter assay. The note with it: PANC-1 cells, EGF (100 ng/mL) or CQ (100 μM). Format: cell-based, human. For orientation: In a reporter assay the amount or activity of a reporter protein is the signal.
Source text: The PCR products of STYK1, GSK3β, and Axin1 were cloned into pcDNA3.1-3×HA, pCMV-3×Flag (Sigma, E4401), and pCMV-mCherry (constructed by our lab) respectively. […] To make STYK1, β-catenin, GSK3β, or BLK mutants or truncations, a series of forwarding primers harboring the desired mutations were used in PCRs. The nucleotide sequences of all constructs were confirmed by DNA sequencing. […] DNA and interference RNA were transfected with Lipofectamine 3000 (Invitrogen, L3000015) according to the manufacturer’s instructions. shRNA for STYK1 #1: 5ʹ- [sequence] -3ʹ. #2: 5ʹ- [sequence] -3ʹ. siRNA for STYK1 was 5ʹ- [sequence] -3ʹ. siRNA for β-catenin was 5ʹ- [sequence] -3ʹ. siRNA for HRS was 5ʹ- [sequence] -3ʹ, siRNA for VPS24 was 5ʹ- [sequence] -3ʹ.
The subject of assay [4] is CyclinD1/Axin2/C-myc. Nature of the assay: Wnt target gene expression (western blot, qRT-PCR). Format: cell-based, human. The note with it: PANC-1 cells, EGF (100 ng/mL) or CQ (100 μM). The procedure: Whole-cell extracts were prepared with 1% sodium dodecyl sulfate lysis buffer with freshly added 1% proteinase inhibitor cocktail (Biomake, B14001) and 1 mM phenylmethylsulfonyl fluoride (PMSF, MCE, HY-B0496). Western blot was performed as described previously.[20]
Total RNA was extracted from cultured pancreatic cancer cells using Trizol reagent (Invitrogen) according to the manufacturer’s protocol. qRT-PCR was performed as previously described.^3 The mRNA expression level for each sample was normalized to the expression of GAPDH using the 2 ^-ΔΔct method^4 with three biological replicates of comparative qRT-PCR. The following primer sequences were used for qRT-PCR: GAPDH, (forward) 5′- […] -3′ and (reverse) 5′- […] -3′; CyclinD1, (forward) 5′- […] -3′ and (reverse) 5′- […] -3′; C-myc, (forward) 5′- […] -3′ and (reverse) 5′- […] -3′; Axin2, (forward) 5′- […] -3′ and (reverse) 5′- […] -3′; STYK1, (forward) 5′- […] -3′ and (reverse) 5′- […] -3′. Amplification was performed in an ABI Q3 real-time PCR system using a SYBR Green master mix (YEASEN, 11201ES08).
Background: Immunoblotting shows a protein as a band on a membrane.

In assay [5] the test system is Wnt/β-catenin signaling in colorectal cancer. Particulars: cited from earlier work. The source says:
Continuously activated Wnt/β-catenin signaling via genetic or epigenetic ways, serves as a potent oncogenic driver across malignancies, spurring intensive efforts to develop targeted inhibitors. Nonetheless, tissue homeostasis and regeneration could be impaired upon the blockade of Wnt signaling, which needs to be resolved and limits Wnt-based therapies. Recent breakthroughs have unmasked tumor-specific vulnerabilities, identifying cancer-cell-restricted regulators that fine-tune Wnt signaling outputs, offering promising avenues for selectively crippling oncogenic Wnt activity.[59] For example ...

Assay [6] relates to Wnt/β-catenin signaling. Nature of the assay: STYK1-mediated Wnt/β-catenin signaling, PANC-1 cells. Format: cell-based, human. The procedure:
as §1

In assay [7] the test system is p62 and LC3. Nature of the assay: Autophagic flux markers p62 and LC3, PANC-1 cells (western blot). Format: cell-based, human. As to the method: as §1

Counter-ions that a name gives are not always drawn.

For `CN1CCN(CCOc2cc(OC3CCOCC3)c3c(Nc4c(Cl)ccc5c4OCO5)ncnc3c2)CC1` [saracatinib], the “BLK-mediated phosphorylation of STYK1 Y191” value in assay [1] is listed as “saracatinib inhibition”.
On to `Oc1nc(-c2ccc(C(F)(F)F)cc2)nc2c1CSCC2` [XAV939], for which, in assay [2] (BALB/c nude mice, PANC-1 xenografts, biweekly intraperitoneal, synthetic peptides (25 mg/kg)), the “tumor growth (methods statement)” value is listed as “reduced tumor growth”. Also, the “STYK1-mediated xenograft tumor growth” value in assay [2] (PANC-1 xenografts with STYK1 WT or mutants, nude mice, n = 3) is given as “suppressed STYK1-mediated xenograft tumor growth, including mutant variants”.
As to `CCN(CC)CCCC(C)Nc1ccnc2cc(Cl)ccc12` (stereo not shown) [CQ, chloroquine diphosphate salt], in assay [3], the “Wnt signaling in the 7TGC system” value is recorded as “decreased Wnt signaling in the 7TGC system”. In addition, the “STYK1-mediated alteration of the Wnt/β-catenin target genes C-myc, Axin2” value in assay [4] was “down-regulated STYK1-mediated alteration of the Wnt/β-catenin target genes C-myc, Axin2”.
With `C/C=C/[C@H]1O[C@@](O)([C@@H](C)[C@H](O)[C@H](C)[C@H]2OC(=O)/C(OC)=C/C(C)=C/[C@@H](C)[C@@H](O)[C@@H](CC)[C@@H](O)[C@H](C)C/C(C)=C/C=C/[C@@H]2OC)C[C@@H](O)[C@@H]1C` [concanamycin], the “inhibition of Wnt/β-catenin signaling” value in assay [5] was “marked inhibition of Wnt/β-catenin signaling in colorectal cancer”.
Turning to bafilomycin, the “inhibition of Wnt/β-catenin signaling” value in assay [5] is reported as “marked inhibition of Wnt/β-catenin signaling in colorectal cancer”.
`O=C(N/N=C/c1ccc(O)c(O)c1)c1cc2ccccc2cc1O` [dynasore]: the “STYK1-mediated activation of Wnt/β-catenin signaling” value in assay [6] is on record as “significantly blocked STYK1-mediated activation of Wnt/β-catenin signaling”. Besides, in assay [7], the “level of LC3” value is “decreased” and the “level of p62” value was “increased”.

The values above are taken from article PMC12209456, “Serine/threonine/tyrosine kinase 1 drives pancreatic carcinogenesis via GSK3β sequestration-mediated Wnt/β-catenin pathway hyperactivation” (Signal Transduction and Targeted Therapy, 2025).
